Data: US4873347A, “Process for the preparation of the demalonyl compound of macrolide lactones” (Hoechst Aktiengesellschaft, priority 1986, dated 1989)
≈ marks a conversion by molar mass, not a printed value.

Key:
Type in all cases: cell-based
[1] = system: yeasts (Candida albicans) and molds (Aspergillus niger); assay: in vitro tests for an antimycotic action in serial dilution, overall result in words; conditions: compared with reference substance niphimycin
Experimental: (§1) The in vitro tests for an antimycotic action are carried out in serial dilution tests on yeasts (Candida albicans) and molds (Aspergillus niger) [Material and Methods: Microtitration technique published in Mykosen 27, 14 (1984)].

Aspergillus niger = assay: in vitro serial dilution test for antimycotic action (microtitration technique), mold; conditions: read-out: Minimum inhibitory concentration for Aspergillus niger
Experimental: as §1

Candida albicans = assay: in vitro serial dilution test for antimycotic action (microtitration technique), yeast; conditions: read-out: Minimum inhibitory concentration for Candida albicans
Experimental: as §1

SMILES	antimycotic properties [1]	MIC (Aspergillus niger)	MIC (Candida albicans)
CNC(=N)NCCCC=CCCCC(C)CC(C)C1OC(=O)C(C)C(O)C=CC(C)C(O)CC(O)C(C)C(O)CCC(C)C(O)CC2(O)OC(CC(O)CC(O)CC(O)C(C)C(O)C=CC=CC1C)CC(O)C2O (centres unmarked) [Demalonyl compound]	good antimycotic properties which are superior to those of the reference substance niphimycin	1.95 µg/mL (≈ 1.85 µM)	3.9 µg/mL (≈ 3.69 µM)
CNC(=N)NCCCC=CCCCC(C)CC(C)C1OC(=O)C(C)C(O)C=CC(C)C(O)CC(O)C(C)C(O)CCC(C)C(O)CC2(O)OC(CC(OC(=O)CC(=O)O)CC(O)CC(O)C(C)C(O)C=CC=CC1C)CC(O)C2O (centres unmarked) [Niphimycin, reference compound]		3.9 µg/mL (≈ 3.41 µM)	7.8 µg/mL (≈ 6.83 µM)
